Test results as given in US10682386B2, “Compositions for prevention of adhesions and other barrier applications” (Arch Biosurgery, Inc., priority 2006, dated 2020).

Columns and labels:
[1] = system: branch of the superior sagittal sinus in the brains; experiment: Transection of a branch of the superior sagittal sinus in the brain, hemostasis; assay type: in vivo, rats
Method: (§1) Animals were anesthetized with an i.p. injection of ketamine (80 mg/kg) and xylazine (8 mg/kg). All surgical procedures were conducted under an operating microscope. Twenty-two animals, including 10 adult hamsters and 12 young adult female Spraque-Dawley rats (200-250 g), were treated with either iced saline or 20 μl of a 1% peptide solution at the site of the sinus branch transection. The material was prepared by dissolving RADA 16-1 (n-RADARADARADARADA-c; SEQ ID NO: 1) peptide in sterile water, and the peptide-containing solution was applied to the injured tissue with a 31 gauge needle attached to a 2 cc syringe.
(§2) The experiment was videotaped with a time stamp and was replayed one frame at a time to evaluate the length of time required for the peptide solution to form a gel, which effectively impeded bleeding. Hemostasis was assessed visually, and “complete hemostasis” was defined as the complete lack of movement of blood from the wound site.
Durations were measured from the start of application of peptide solution to the completion of hemostasis after transection of the veins leading to the sinus in the brains of adult rats. […] In the saline controls, cessation of bleeding was never achieved. The saline control experiment was terminated at the same time point in order to prevent the animals from bleeding to death.

[2] = system: branch of the superior sagittal sinus in the brains; experiment: as above; assay type: in vivo; conditions: hamsters; 20 μl of a 1% peptide solution at the site of the sinus branch transection; all cases
Method: as §1, §2

[3] = system: superior sagittal sinus; experiment: Complete transection of the superior sagittal sinus, hemostasis; assay type: in vivo; conditions: control animals that continued to bleed after 20 seconds
From the text: A higher concentration of peptide (e.g., approximately 3%-4%) was used in the latter experiment in order to achieve hemostasis. The three saline control cases continued to bleed after 20 seconds.

[4] = system: femoral artery; experiment: Femoral artery transection, hemostasis; assay type: in vivo, adult rats
Method: The sciatic nerve and the adjacent femoral artery were exposed in adult rats, and the femoral artery was transected. Twelve rats were treated by application of 20 μl of a 1% solution of RADA 16-I (SEQ ID NO: 1) peptide to the site of transection using a glass pipette attached to a syringe body, while controls were treated by applying cold saline to the site of transection. […] The saline control cases continued to bleed until the experiment was terminated at 110 seconds.
A series of pictures was taken in an adult rat in which the femoral artery was transected. In the picture taken first, the sciatic nerve and the femoral artery are exposed. […] The assembled material can be suctioned off the site easily if desired.

[5] = system: spinotrapezius muscles; experiment: Muscle trauma, cut in spinotrapezius muscle on the back, hemostasis; assay type: in vivo, rat; conditions: 1% peptide solution applied in deep cut, 1-2 cm incisions
From the text: (§3) The spinotrapezius muscles on the back of the rats were exposed and a deep cut was made in the muscle, after which 1% peptide solution (RADA16-I) (SEQ ID NO: 1) was applied in the cut. Within 10 seconds, all bleeding had stopped. With the application of iced saline alone, control animals continued to bleed after 20 seconds.

[6] = system: muscle of the hind limb (porteocaudalis and musculus tibialis cranialis); experiment: Muscle trauma, hind limb muscle and limb wounds, hemostasis; assay type: in vivo, rat
From the text: as §3, with “seconds. […] However when an artery or vein was transected 2% or higher material was needed to bring about hemostasis.[…]” for “seconds.”

[7] = system: liver, lobus sinister lateralis; experiment: Liver cut, rostral to caudal, vessel of relatively low pressure, hemostasis; assay type: in vivo, adult rat; conditions: 1% peptide solution applied topically and in the cut
From the text: Profuse bleeding ensued. A 1% peptide solution (RADA16-1) (SEQ ID NO: 1) was applied to the cut and in its vicinity using a 27 gauge needle and 4 cc syringe. All bleeding stopped within 10 seconds. A series of pictures was obtained. […] After treating the site with 1% peptide solution (applied topically and in the cut), all bleeding stopped within 10 seconds. A clear area was observed between the two halves of the lobus sinister lateralis. This procedure was repeated several times with the same result.

[8] = system: liver, lobus sinister lateralis and a major branch of the portal vein; experiment: Liver transverse cut with major branch of the portal vein, higher pressure, hemostasis; assay type: in vivo, rat
Method: A series of pictures illustrate the experiment. […] The cut was treated with 4% peptide solution applied topically and in the cut. All bleeding stopped within 10 seconds. […] Thus, application of 4% peptide solution brings about complete hemostasis in a high pressure bleeding environment in less than 10 seconds. […] This procedure was repeated several times with the same result.

[9] = system: lobus sinistras laterialis of the liver; experiment: Removal of ¼ of the liver lobe, topical treatment of the margin, hemostasis; assay type: in vivo
Method: In other experiments ¼ of the lobe in the lower right quadrant of the lobus sinistras laterialis was removed, and the margin was treated with a topical application of 2% peptide (RADA16-I) (SEQ ID NO: 1) to the site of injury. Bleeding stopped in less than 10 seconds.

[10] = system: liver; experiment: 4 mm liver punch biopsy, adhesions; assay type: in vivo, adult rats; conditions: punch filled with 3%; survival 2 d, 7 d, 14 d, 6 w, 8 w
Method: The liver of 18 adult rats was exposed under deep anesthesia, the upper right lobe was punched by a 4 mm punch, then the wound was treated with 3% NHS-1. Animals were allowed to survive 2 d, 7 d, 14 d, 6 w, and 8 w respectively, then the animals were anesthetized again and the punched lobe of liver was dissected and processed for H&E staining. In addition a set of controls were treated with either saline or cautery. 4 mm liver punch biopsy experiment with control and filling of punch with 3% RADA. All of the controls had adhesions on both surfaces while the treated had no adhesions. In the 2 week, 6 week and 8 week controls adhesions were cut away on the upper and lower surfaces. On all the 3% RADA treated cases there were no adhesions on with the upper or lower surface of the liver.

[11] = system: intestine at the level of the duodenum; experiment: Perforation of the intestine at the level of the duodenum, leakage of gastric fluid; assay type: in vivo, adult rat
Method: An additional volume of 2% peptide solution was injected into the duodenum at the level of the injury. […] In the control cut at the level of the duodenum, the wall of the intestine inverted and gastric fluids continued to leak from the site of injury when left untreated.

[12] = system: skin and subcutaneous tissue; experiment: 4 mm punch biopsy of skin and subcutaneous tissue, healing test; assay type: in vivo
Method: The regions from which the biopsies were taken were either treated by a single application of self-assembling peptide (RADA16-I) (SEQ ID NO: 1) solution or were left untreated. The wounds were left unbandaged. A series of pictures of a 4 mm punch biopsy healing test in which injured animals were treated with the self assembling peptide and compared to matching cases with no treatment illustrates the results. The wounds were photographed on day 0, day 1, day 4, and day 7. […] Treatment with the peptide appeared to speed healing by as much as 5 days in some cases.

n-RADARADARADARADA-c [RADA16-I]
hemostasis five seconds after the peptide solution was applied ([1]; adult rat, one of the veins of the superior sagittal sinus transected, series of pictures): Complete hemostasis was achieved
average duration from start of application of peptide solution to completion of hemostasis ([1]; adult rats, transection of the veins leading to the sinus): 8.3 s
time to complete hemostasis after application of the peptide solution ([1]; rats, 20 μl of a 1% peptide solution at the site of the sinus branch transection, all cases): ≤ 10 s
time to complete hemostasis after application of the peptide solution [2]: ≤ 10 s
hemostasis after iced saline was removed and the peptide solution was applied [3]: complete hemostasis almost immediately
time to hemostasis ([4]; 20 μl of a 1% solution at the site of transection, twelve rats, all treated cases): less than 10 seconds
time at which complete hemostasis was observed ([4]; adult rat, series of pictures): about five
hemostasis after replacement of the cold saline with the peptide solution ([4]; control animals that bled until 110 seconds): almost immediate achievement of complete hemostasis
time complete hemostasis was maintained ([4]; duration of the test): 1 h
time until all bleeding had stopped [5]: ≤ 10 s
hemostasis in limb wounds ([6]; between 1% to 100% peptide applied): hemostasis was achieved in all cases
concentration of material needed to bring about hemostasis ([6]; when an artery or vein was transected): ≥ 2%
time until all bleeding stopped [7]: ≤ 10 s
hemostasis ([8]; 1% solution): partial cessation of bleeding
hemostasis ([8]; 2% peptide solution): complete hemostasis was also achieved
hemostasis ([8]; 3% peptide solution): complete hemostasis was also achieved
bleeding ten minutes later ([8]; 4% peptide solution): still no bleeding
bleeding under physical stress (lower part of lobe pulled downward) ([8]; 4% peptide solution): did not bleed
hemostasis after excess peptide structure was wiped away ([8]; 30 seconds after treatment): hemostasis was maintained
hemostasis at the margin of the liver after the peptide was removed ([9]; 2% peptide, removed one minute later): complete hemostasis was achieved
time until bleeding stopped ([9]; topical application of 2% peptide to the margin): less than 10 seconds
adhesions on the upper or lower surface of the liver [10]: no adhesions
progression of the intestinal wall inversion ([11]; control cut treated 15 minutes after the injury): stopped the progression
leakage from the injury site ([11]; control cut treated with peptide solution 15 minutes after the injury): stopped all leakage
leakage of gastric fluids from the intestine ([11]; site treated with 2% peptide solution): all leakage of gastric fluids from the intestine stopped
shrinkage of the wound site versus untreated ([12]; all cases): happened faster
healing of treated wounds versus no treatment ([12]; single application, contraction of the wound site as early as day 1): healed much faster
speeding of healing ([12]; single application, in some cases): ≤ 5 days
